Experimental findings from patent US9751824B2, “Acetyl salicyclic acid dimers, synthesis thereof, and uses thereof to prevent and treat complement-mediated disorders” (Aurin Biotech Inc., priority 2013, dated 2017) are described below.

One test concerns C4. Nature of the test: Fluorometric binding to immobilized protein (FIG. 6). Also noted: species or system human. The note with it: compound 100 microgm/mL; protein 32 ng/mL. The protocol:
The next set of experiments directly tested the binding of DAS-1 and DAS-2 to properdin, Factor D and complement proteins. These proteins were immobilized on microwell plates in a concentration range of 1-32 ng/mL. DAS-1 and DAS-2 were then added at a concentration of 100 microgm/mL and the solutions incubated as previously described. DAS-1 and DAS-2 binding to the proteins was then assayed according to a previously published fluorometric method except that the excitation frequency was […] and the emission frequency […]. […] Such binding explains why DAS-1 and DAS-2 block the alternative pathway at the stage where Factor D cleaves PC3B to form PC3Bb, and both the classical and alternative pathways at the stage where C9 adds to C5b678. […] There was no binding of DAS-1 or DAS-2 to properdin and only background fluorescence was observed.

The subject of test [1] is C3 convertase of the alternative pathway. Nature of the test: Western blot of red blood cell membranes, alternative pathway with C1 inhibitor (FIG. 5). The settings on record: 1 microM; serum 15 fold dilution, zymosan, C1 inhibitor 1.8 micrograms/mL. It is filed as cell-based, human. As for the experimental part:
To determine the effects of DAS-1 and DAS-2 on the alternative pathway, further experiments were carried out as shown in FIG. 5. […] To these mixtures human RBCs (5×10^9) were added. The mixtures were incubated for 1 h at 37° C. and centrifuged at 5,000 rpm for […]. The pellets were washed two times with Hank's balanced salt solution (HBSS) and treated with sample loading buffer for SDS-PAGE and immunoblotting. The buffer consisted of 50 mM Tris (pH 6.8), 0.1% SDS, 0.1% bromophenol blue and 10% glycerol. To preserve the molecular complexes that had formed, mild conditions for SDS-PAGE were followed. The sample loading buffer used was 50 mM Tris (pH 6.8), 1% SDS, 0.1% bromophenol blue and 10% glycerol and 2% beta-mercaptoethanol.
However an independent band for C3b was not detected. […] Lanes 3 and 4 show the results obtained in the presence of 1 microM of DAS-1 or DAS-2. […] Instead, strong bands for the earlier steps of PC3b and PC3bB appeared.

Test [2] concerns classical complement pathway. Nature of the test: CH50 assay, hemolysis of sensitized human red blood cells by zymosan-activated cat serum. It is filed as cell-based. The note with it: Felis catus, Erythrocyte, read-out: IC50, protection of human red blood cells from complement attack. The protocol: (§1) To evaluate the strength of blockade of the classical complement pathway achieved by DAS-1 and DAS-2, a standard CH50 assay was employed. Normal human red blood cells were sensitized by incubation overnight with rabbit anti red blood cell antibody. Then dilutions of serum activated by zymosan, with and without various amounts of DAS-1, DAS-2, or the precursor acetylsalicylic acid, were incubated with the sensitized red blood cells for 1 hour at 37° C. The incubates were centrifuged at 5,000 rpm for 10 min. The hemoglobin released into the serum from red blood cells that had been destroyed by complement attack, was determined by reading the optical density (OD) at 405 nm. As a positive control, red blood cells were 100% lysed with water, and as a negative control, no serum was added to the incubate.
(§2) DAS-1 and DAS-2 protected human red blood cells from complement attack by zymogen activated serum of human, rat, cat, and dog. FIG. 3A illustrates the result for DAS-1.

In test [3] the test system is classical complement pathway. Nature of the test: CH50 assay, hemolysis of sensitized human red blood cells by zymosan-activated rat serum. The test is classed as cell-based. The settings on record: Erythrocyte, read-out: IC50, protection of human red blood cells from complement attack. The protocol: as §1, §2
The target of test [4] is T1, C5b-9 membrane attack complex (Homo sapiens, UniProt P02748).
T1 construct: from tissue; host or cells: human serum, with human red blood cells as the target membrane
Nature of the test: Western blot of membrane attack complex assembly stage with C6, C7, C8, C9 antibodies (FIG. 4B). The test is classed as cell-based. The settings on record: western blots probed with antibodies to C6, C7, C8 and C9. As for the experimental part:
To determine at which stage of the complement cascade blockade was occurring, a variation of the CH50 assay was carried out. Instead of measuring hemolysis, western blot analyses of red blood cell membranes were carried out to determine which serum complement proteins were converted into activated complement products that became attached to susceptible membranes. Such attachment only occurs up to the stage of blockade. At stages beyond the blockade, they remain unchanged in the serum. Undiluted human serum was treated for 30 min with DAS-1, DAS-2, or acetyl salicylic acid. Then antibody-conjugated red blood cells in an equal volume were added. The mixtures were incubated at 37° C. for 1 h. They were then treated with a lysis buffer followed by a loading buffer for western blots. Equal amounts of protein from each sample were loaded onto gels and separated by 10% SDS-PAGE. Following SDS-PAGE, proteins were transferred to a PVDF membrane. The membranes were then treated with various primary antibodies followed by labeled secondary antibodies using well established techniques. Bands recognized by the antibodies were visualized by use of an enhanced chemiluminescence system and exposure to photographic film. […] The C6 antibody detected C5b6, C5b67, and C5b678. The C7 antibody detected C5b67 and C5b678, while the C8 antibody detected C5b678. […]
Background: A western blot detects proteins with antibodies after separation by electrophoresis.

Test [5] deals with classical complement pathway. The test can be described thus: CH50 assay, hemolysis of sensitized human red blood cells by zymosan-activated human serum. It is filed as cell-based. The settings on record: Erythrocyte, zymosan-activated human serum, read-out: IC50, protection of human red blood cells from complement attack. As for the experimental part:
as §1, §2

T1 sequence (P02748 22-559, one chain of several): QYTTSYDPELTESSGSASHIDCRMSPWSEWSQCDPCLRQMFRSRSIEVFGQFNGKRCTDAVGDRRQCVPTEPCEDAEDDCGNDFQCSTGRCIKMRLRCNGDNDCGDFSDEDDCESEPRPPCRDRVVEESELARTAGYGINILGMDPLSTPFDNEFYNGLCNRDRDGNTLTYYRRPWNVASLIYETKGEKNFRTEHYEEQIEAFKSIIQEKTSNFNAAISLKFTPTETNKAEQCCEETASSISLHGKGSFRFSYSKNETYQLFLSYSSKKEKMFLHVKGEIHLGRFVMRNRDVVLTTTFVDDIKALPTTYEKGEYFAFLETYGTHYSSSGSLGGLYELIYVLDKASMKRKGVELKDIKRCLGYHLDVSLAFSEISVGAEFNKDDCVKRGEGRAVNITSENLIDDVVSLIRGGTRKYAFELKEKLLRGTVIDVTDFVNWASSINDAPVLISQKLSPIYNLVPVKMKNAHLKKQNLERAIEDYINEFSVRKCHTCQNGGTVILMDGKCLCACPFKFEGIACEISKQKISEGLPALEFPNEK

By IC50 is commonly meant the concentration that gives 50% inhibition. Regarding `CC(=O)Oc1ccc(-c2ccc(OC(C)=O)c(C(=O)O)c2)cc1C(=O)O` [DAS-1, 4,4′-diacetoxy-[1,1′-biphenyl]-3,3′-dicarboxylic acid], the “binding to C4” value in the test on C4 is reported as “did not bind”. Further, in test [1], the “bands for PC3bBb and PC3bBbC3b on RBC membranes” value is given as “did not form”. Also, in test [1], the “bands for the earlier steps of PC3b and PC3bB on RBC membranes” value is “strong bands”. In addition, the IC50 is 168 nM in test [2] (1 hour at 37° C., OD 405 nm); 294 nM in test [3] (1 hour at 37° C., OD 405 nm); 208 nM in test [5] (1 hour at 37° C., OD 405 nm). For the same compound, the “stage at which membrane attack complex formation is arrested” value in test [4] is given as “arrested at the C8 stage”.
As to `CC(=O)Oc1ccc(Cc2ccc(OC(C)=O)c(C(=O)O)c2)cc1C(=O)O` [DAS-2, 5,5′-methylenebis(2-acetoxybenzoic acid)], in the test on C4, the “binding to C4” value was “did not bind”. Further, in test [1], the “bands for PC3bBb and PC3bBbC3b on RBC membranes” value was “did not form”. Moreover, the “bands for the earlier steps of PC3b and PC3bB on RBC membranes” value in test [1] was “strong bands”. The IC50 was determined as 128 nM in test [2] (unit inferred), 167 nM in test [3] (unit inferred) and 113 nM in test [5] (unit inferred). Moreover, in test [4], the “stage at which membrane attack complex formation is arrested” value is “same results as in lane 3”.
